Reference: article PMC12051620, “Molecular basis underlying the specificity of an antagonist AA92593 for mammalian melanopsins” (The Journal of Biological Chemistry, 2025)
“Also recorded” adds a separate entry of the source.

What was measured:
Assay in all cases: NanoBiT Gq dissociation assay using Gqα/R183Q-LgBiT
Format in all cases: cell-based
human melanopsin WT = target: T1, human melanopsin WT (Homo sapiens, UniProt Q9UHM6); settings: 1.67 and 16.7 μM AA92593; COS-1 cells; concentration-dependent
T1 construct: expressed in transfected cells; host or cells: COS-1
T1 sequence (Q9UHM6 1-384 limits assumed): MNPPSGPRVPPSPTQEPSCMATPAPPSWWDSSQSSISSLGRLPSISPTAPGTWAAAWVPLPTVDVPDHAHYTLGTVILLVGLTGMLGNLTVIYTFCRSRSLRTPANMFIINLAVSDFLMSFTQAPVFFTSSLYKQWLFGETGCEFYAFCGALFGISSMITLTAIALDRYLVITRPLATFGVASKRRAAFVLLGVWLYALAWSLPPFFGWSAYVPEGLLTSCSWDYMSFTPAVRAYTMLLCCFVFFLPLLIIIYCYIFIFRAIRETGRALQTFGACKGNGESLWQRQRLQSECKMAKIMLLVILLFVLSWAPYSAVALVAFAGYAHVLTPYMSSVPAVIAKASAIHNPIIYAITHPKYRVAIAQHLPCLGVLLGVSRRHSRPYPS
Description: (§1) As described above, we have assessed the inhibitory effect of AA92593 using the GsX GloSensor assay. To confirm whether an antagonistic effect could be observed in another experimental system, we used the NanoBiT G protein dissociation assay ([23]). In this assay, Gq activation (dissociation) is detected as a decrease in NanoLuc luminescence from the Lg-BiT fragment inserted with Gqα and the Sm-BiT fragment fused with Gβγ (see “Experimental procedures”) ([23], [24]). If an antagonistic effect is observed in the NanoBiT assay, the light-dependent decrease in luminescence (Gq dissociation) by melanopsin would be reduced in the presence of AA92593. […] A recent study reported that the introduction of a GTPase-deficient substitution, R183Q, on Gqα increased GPCR-induced Gq dissociation signals in a BRET-based biosensor assay, TRUPATH ([25]). […]
(§2) For GloSensor assay, opsins, GloSensor assay sensor (coded by pGlo-22F), and NanoBiT-tagged G proteins were transiently expressed in COS-1 cells (kindly provided from Dr David Farrens, Oregon Health and Science University) using PEI as described previously ([24], [52]). […] For GFP-fluorescence microscopy, a 35-mm cell culture dish (IWAKI) was transfected with 2 μg melanopsin-GFP plasmid and 8 μg PEI in 400 μl Opti-mem and 1.2 ml D-MEM. […]
(§3) The transfected COS-1 cells were incubated at 37 °C, 5% CO2 for 1 day, and the medium was aspirated, followed by the addition of 50 μl of HBSS containing 33.3, 3.33, or 0 μM AA92593, 0.5% DMSO, and 10 μM coelenterazine h (Wako). […] After incubation of the cells, luminescence measurement was interrupted, the plate was ejected, and the cells were added 50 μl of HBSS containing 0.2 μM 9-cis-retinal. […] Luminescence was measured using GM-2000 or GM-3510 microplate reader (Promega). Luminescence level of each well was measured every 18 s with integration time of 0.3 s. To illuminate opsins, luminescence measurement was interrupted, the plate was ejected, and the plate was illuminated by white light with CN-160 LED video light (light intensity, ∼9 mW/cm^2) (NEEWER). After illumination, luminescence measurement was resumed. […]

[1] = target: T2, human melanopsin F94^2.61C/S188^ECL2T/S269^6.52A mutant (Homo sapiens, UniProt Q9UHM6, F127C/S222T/S313A); settings: 1.67 and 16.7 μM AA92593; COS-1 cells
T2 construct: expressed in transfected cells; host or cells: COS-1
T2 sequence (Q9UHM6 1-384 F127C/S222T/S313A): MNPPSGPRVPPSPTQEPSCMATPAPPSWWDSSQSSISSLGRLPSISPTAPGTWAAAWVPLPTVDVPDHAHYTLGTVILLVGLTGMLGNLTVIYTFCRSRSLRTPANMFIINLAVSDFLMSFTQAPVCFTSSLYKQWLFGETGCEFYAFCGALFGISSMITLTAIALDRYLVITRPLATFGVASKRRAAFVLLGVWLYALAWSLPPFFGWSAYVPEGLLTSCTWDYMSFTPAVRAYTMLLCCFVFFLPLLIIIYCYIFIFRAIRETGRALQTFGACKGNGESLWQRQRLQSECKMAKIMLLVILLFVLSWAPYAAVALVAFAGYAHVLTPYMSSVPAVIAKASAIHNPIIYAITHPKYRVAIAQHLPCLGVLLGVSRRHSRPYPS
Description: as §1, §2, §3

[2] = target: T3, human melanopsin F94^2.61C/S188^ECL2T/W189^ECL2F/S269^6.52A mutant (Homo sapiens, UniProt Q9UHM6, F127C/S222T/S313A/W223F); settings: 1.67 and 16.7 μM AA92593; COS-1 cells
T3 construct: expressed in transfected cells; host or cells: COS-1
T3 sequence (Q9UHM6 1-384 F127C/S222T/W223F/S313A): as the sequence (Q9UHM6 1-384 F127C/S222T/S313A) above, with W223F counted along it
Description: as §1, §2, §3

Q: For `COc1ccc(S(=O)(=O)N2CCCCC2)cc1C` [AA92593], which “effect on light-dependent decrease in NanoLuc luminescence (Gq dissociation)” value (human melanopsin WT) is on record?
A: The value was “weakened”.

Q: And the “AA92593-dependent inhibitory effect on Gq activation compared to WT” value [1]?
A: Its value is “much reduced; also recorded: almost insensitive”.

Q: And the “sensitivity to AA92593 in Gq dissociation” value [2]?
A: The value was “little sensitivity”.
